In the assay the target is T1, human MAGL (His-hMAGL) (Homo sapiens, UniProt Q99685).
T1 construct: made in house; host or cells: Escherichia coli BL21(DE3)
T1 sequence (Q99685 1-303): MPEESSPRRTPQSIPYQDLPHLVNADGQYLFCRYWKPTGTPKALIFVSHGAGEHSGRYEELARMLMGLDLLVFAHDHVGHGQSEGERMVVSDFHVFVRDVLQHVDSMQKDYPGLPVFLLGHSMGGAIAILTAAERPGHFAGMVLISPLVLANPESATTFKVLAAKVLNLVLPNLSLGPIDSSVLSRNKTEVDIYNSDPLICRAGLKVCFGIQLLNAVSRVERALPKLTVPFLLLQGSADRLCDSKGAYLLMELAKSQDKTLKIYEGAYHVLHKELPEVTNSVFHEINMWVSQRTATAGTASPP
The assay can be described thus: Measurement of MAGL inhibitory activity by mass spectrometry. In kind it is biochemical. To be noted: 10 μM test compound; substrate 2-arachidonylglycerol, arachidonic acid by RapidFire-mass spectrometry. The procedure:
Thereafter, to each well was added 150 μM 2-arachidonylglycerol (Tocris Bioscience) by 5 μL, and the mixture was incubated at room temperature for 10 min. Then, 2% formic acid (Wako Pure Chemical Industries, Ltd.) was added by 10 μL to discontinue the reaction. Furthermore, acetonitrile (50 μL) containing 3 μM arachidonic acid-d8 (Cayman Chemical Company) was added and the mixture was stirred. The amount of arachidonic acid in the obtained enzyme reaction mixture was calculated by measuring by RapidFire-mass spectrometry and correcting by the amount of arachidonic acid-d8. High Throughput online solid phase extraction was performed using RapidFire 300TM system (Agilent Technologies, Inc.). […] The injection needle was washed with ultrapure water (500 millisecond) and acetonitrile (500 millisecond) to minimize carry-over. […] The RapidFire300 system was controlled by RapidFire UI software version 3.6 (Agilent Technologies, Inc.). The mass spectrometry of the resultant product was performed using […] triple quadrupole mass spectrometer (AB SCIEX) equipped with an electrospray ion sauce (Turbolon SprayTM) in a negative selected reaction monitoring (SRM) mode. The conditions of SRM are shown below. The parameters of the instrument were optimized as follows: capillary temperature 600° C., ion spray voltage -4.5 kV, collision gas 8, curtain gas 15 psi, ion source gas 1 60 psi, ion source gas 2 60 psi. The mass spectrometer was controlled by AnalystTM software version 1.5.1 (AB SCIEX). The peak area integration was analyzed using RapidFire integrator software version 3.6 (Agilent Technologies, Inc.). MAGL inhibitory rate (%) was calculated according to the following calculation formula.
In the case of `Cc1ccc(-c2cccc(N3CC(N4CCN(C(=O)c5nccs5)CC4)CC3=O)c2)cc1` (stereo not drawn) [Example 90, 1-(4′-methylbiphenyl-3-yl)-4-(4-(1,3-thiazol-2-ylcarbonyl)piperazin-1-yl)pyrrolidin-2-one], the inhibition at 10 µM was found to be 102%. The figure for `Cc1cccc(-c2cccc(N3CC(N4CCN(C(=O)c5nccs5)CC4)CC3=O)c2)c1` (stereo not drawn) [Example 91, 1-(3′-methylbiphenyl-3-yl)-4-(4-(1,3-thiazol-2-ylcarbonyl)piperazin-1-yl)pyrrolidin-2-one] is 102%; for `O=C(c1nccs1)N1CCN(C2CC(=O)N(c3cccc(-c4cccs4)c3)C2)CC1` (stereo not drawn) [Example 93, 4-(4-(1,3-thiazol-2-ylcarbonyl)piperazin-1-yl)-1-(3-(2-thienyl)phenyl)pyrrolidin-2-one] it is 101%; for `O=C(c1nccs1)N1CCN(C2CC(=O)N(c3cccc(-c4ccsc4)c3)C2)CC1` (stereo not drawn) [Example 94, 4-(4-(1,3-thiazol-2-ylcarbonyl)piperazin-1-yl)-1-(3-(3-thienyl)phenyl)pyrrolidin-2-one] it is 99%.

For `CC(=O)Nc1cccc(-c2cccc(N3CC(N4CCN(C(=O)c5nccs5)CC4)CC3=O)c2)c1` (stereo not drawn) [Example 95, N-(3′-(2-oxo-4-(4-(1,3-thiazol-2-ylcarbonyl)piperazin-1-yl)pyrrolidin-1-yl)biphenyl-3-yl)acetarnide], the inhibition at 10 µM was 99%.

On to `O=C(c1nccs1)N1CCN(C2CC(=O)N(c3cccc(-c4ccoc4)c3)C2)CC1` (stereo not drawn) [Example 96, 1-(3-(3-furyl)phenyl)-4-(4-(1,3-thiazol-2-ylcarbonyl)piperazin-1-yl)pyrrolidin-2-one], for which the inhibition at 10 µM is 99%. With `CC(=O)Nc1ccc(-c2cccc(N3CC(N4CCN(C(=O)c5nccs5)CC4)CC3=O)c2)cc1` (stereo not drawn) [Example 97, N-(3′-(2-oxo-4-(4-(1,3-thiazol-2-ylcarbonyl)piperazin-1-yl)pyrrolidin-1-yl)biphenyl-4-yl)acetarnide], the inhibition at 10 µM turned out to be 97%.

For the compound `NC(=O)c1cccc(-c2cccc(N3CC(N4CCN(C(=O)c5nccs5)CC4)CC3=O)c2)c1` (stereo not drawn) [Example 98, 3′-(2-oxo-4-(4-(1,3-thiazol-2-ylcarbonyl)piperazin-1-yl)pyrrolidin-1-yl)biphenyl-3-carboxamide], the inhibition at 10 µM was determined as 100%. The figure for `O=C(c1nccs1)N1CCN(C2CC(=O)N(c3cccc(Cc4ccccc4)c3)C2)CC1` (stereo not drawn) [Example 99, 1-(3-benzylphenyl)-4-(4-(1,3-thiazol-2-ylcarbonyl)piperazin-1-yl)pyrrolidin-2-one] is 102%. For `CS(=O)(=O)Nc1cccc(-c2cccc(N3CC(N4CCN(C(=O)c5nccs5)CC4)CC3=O)c2)c1` (stereo not drawn) [Example 100, N-(3′-(2-oxo-4-(4-(1,3-thiazol-2-ylcarbonyl)piperazin-1-yl)pyrrolidin-1-yl)biphenyl-3-yl)methanesulfonamide], the inhibition at 10 µM is 101%. In the case of `Cn1nccc1-c1cccc(N2CC(N3CCN(C(=O)c4nccs4)CC3)CC2=O)c1` (stereo not drawn) [Example 101, 1-(3-(1-methyl-1H-pyrazol-5-yl)phenyl)-4-(4-(1,3-thiazol-2-ylcarbonyl)piperazin-1-yl)pyrrolidin-2-one] it was 99%; in that of `NS(=O)(=O)c1ccc(-c2cccc(N3CC(N4CCN(C(=O)c5nccs5)CC4)CC3=O)c2)cc1` (stereo not drawn) [Example 102, 3′-(2-oxo-4-(4-(1,3-thiazol-2-ylcarbonyl)piperazin-1-yl)pyrrolidin-1-yl)biphenyl-4-sulfonamide], 96%; in that of `NS(=O)(=O)c1cccc(-c2cccc(N3CC(N4CCN(C(=O)c5nccs5)CC4)CC3=O)c2)c1` (stereo not drawn) [Example 103, 3′-(2-oxo-4-(4-(1,3-thiazol-2-ylcarbonyl)piperazin-1-yl)pyrrolidin-1-yl)biphenyl-3-sulfonamide], 100%. In the case of `CNC(=O)c1ccc(-c2cccc(N3CC(N4CCN(C(=O)c5nccs5)CC4)CC3=O)c2)cc1` (stereo not drawn) [Example 104, N-methyl-3′-(2-oxo-4-(4-(1,3-thiazol-2-ylcarbonyl)piperazin-1-yl)pyrrolidin-1-yl)biphenyl-4-carboxamide] it was 95%. The figure for `O=C1Cc2cc(-c3cccc(N4CC(N5CCN(C(=O)c6nccs6)CC5)CC4=O)c3)ccc2N1` (stereo not drawn) [Example 105, 5-(3-(2-oxo-4-(4-(1,3-thiazol-2-ylcarbonyl)piperazin-1-yl)pyrrolidin-1-yl)phenyl)-1,3-dihydro-2H-indol-2-one] is 101%. As to `O=C(c1nccs1)N1CCN(C2CC(=O)N(c3cccc(-c4cnn5ccccc45)c3)C2)CC1` (stereo not drawn) [Example 106, 1-(3-(pyrazolo[1,5-a]pyridin-3-yl)phenyl)-4-(4-(1,3-thiazol-2-ylcarbonyl)piperazin-1-yl)pyrrolidin-2-one], the inhibition at 10 µM came out at 99%. The figure for `O=C(c1nccs1)N1CCN(C2CC(=O)N(c3ccc4c(ccn4-c4cc(C(F)(F)F)ccn4)c3)C2)CC1` (stereo not drawn) [Example 108, 4-(4-(1,3-thiazol-2-ylcarbonyl)piperazin-1-yl)-1-(1-(4-(trifluoromethyl)pyridin-2-yl)-1H-indol-5-yl)pyrrolidin-2-one] is 97%. In the case of `O=C(c1nccs1)N1CCN(C2CC(=O)N(c3ccc4c(ccn4-c4ccnc(C(F)(F)F)c4)c3)C2)CC1` (stereo not drawn) [Example 109, 4-(4-(1,3-Thiazol-2-ylcarbonyl)piperazin-1-yl)-1-(1-(2-(trifluoromethyl)pyridin-4-yl)-1H-indol-5-yl)pyrrolidin-2-one] it was 100%; in that of `CS(=O)(=O)Nc1ccc(-c2cccc(N3CC(N4CCN(C(=O)c5nccs5)CC4)CC3=O)c2)cc1` (stereo not drawn) [Example 110, N-(3′-(2-oxo-4-(4-(1,3-thiazol-2-ylcarbonyl)piperazin-1-yl)pyrrolidin-1-yl)biphenyl-4-yl)methanesulfonamide], 99%. As to `O=C(c1nccs1)N1CCN(C2CC(=O)N(c3ccc4c(ccn4-c4ccc(C(F)(F)F)nc4)c3)C2)CC1` (stereo not drawn) [Example 111, 4-(4-(1,3-thiazol-2-ylcarbonyl)piperazin-1-yl)-1-(1-(6-(trifluoromethyl)pyridin-3-yl)-1H-indol-5-yl)pyrrolidin-2-one], the inhibition at 10 µM was determined as 99%. Consider `CNS(=O)(=O)c1ccc(-c2cccc(N3CC(N4CCN(C(=O)c5nccs5)CC4)CC3=O)c2)cc1` (stereo not drawn) [Example 112, N-methyl-3′-(2-oxo-4-(4-(1,3-thiazol-2-ylcarbonyl)piperazin-1-yl)pyrrolidin-1-yl)biphenyl-4-sulfonamide], for which the inhibition at 10 µM worked out at 6%. With `O=C(c1nccs1)N1CCN(C2CC(=O)N(c3ccc4[nH]ccc4c3)C2)CC1` (stereo not drawn) [Example 113, 1-(1H-indol-5-yl)-4-(4-(1,3-thiazol-2-ylcarbonyl)piperazin-1-yl)pyrrolidin-2-one], the inhibition at 10 µM was 80%. The figure for `O=C(c1nccs1)N1CCN(C2CC(=O)N(c3ccc4c(cnn4Cc4ccc(F)cc4)c3)C2)CC1` (stereo not drawn) [Example 114, 1-(1-(4-Fluorobenzyl)-1H-indazol-5-yl)-4-(4-(1,3-thiazol-2-ylcarbonyl)piperazin-1-yl)pyrrolidin-2-one] is 98%. As for `O=C(c1nccs1)N1CCN(C2CC(=O)N(c3cccc(NC4CCCCC4)c3)C2)CC1` (stereo not drawn) [Example 115, 1-(3-(cyclohexylamino)phenyl)-4-(4-(1,3-thiazol-2-ylcarbonyl)piperazin-1-yl)pyrrolidin-2-one], the inhibition at 10 µM stood at 97%.

Source of the values: patent US9624170B2, “4-(piperrazin-1-yl)-pyrrolidin-2-one compounds as monoacylglycerol lipase (MAGL) inhibitors” (TAKEDA PHARMACEUTICAL COMPANY LIMITED, priority 2013, dated 2017).
